Laboratory results reported in ChEMBL document CHEMBL4715920, “Novel Spiropiperidine Allosteric Modulators of Nicotinic Acetylcholine Receptors for Treating Central Nervous System Disorders” (ACS Med Chem Lett, 2021).

Biological target: Neuronal acetylcholine receptor subunit alpha-7 (Homo sapiens, UniProt P36544)
Test: Positive allosteric modulation of recombinant human AChR alpha7 expressed in HEK cells co-expressing RIC-3 at -60 mV holding potential treated for 58 sec followed by acetylcholine applied for 1 sec measured potentiation effect by automated patch clamp electrophysiological method
Format: cell-based

Sequence of Neuronal acetylcholine receptor subunit alpha-7 (P36544 whole entry): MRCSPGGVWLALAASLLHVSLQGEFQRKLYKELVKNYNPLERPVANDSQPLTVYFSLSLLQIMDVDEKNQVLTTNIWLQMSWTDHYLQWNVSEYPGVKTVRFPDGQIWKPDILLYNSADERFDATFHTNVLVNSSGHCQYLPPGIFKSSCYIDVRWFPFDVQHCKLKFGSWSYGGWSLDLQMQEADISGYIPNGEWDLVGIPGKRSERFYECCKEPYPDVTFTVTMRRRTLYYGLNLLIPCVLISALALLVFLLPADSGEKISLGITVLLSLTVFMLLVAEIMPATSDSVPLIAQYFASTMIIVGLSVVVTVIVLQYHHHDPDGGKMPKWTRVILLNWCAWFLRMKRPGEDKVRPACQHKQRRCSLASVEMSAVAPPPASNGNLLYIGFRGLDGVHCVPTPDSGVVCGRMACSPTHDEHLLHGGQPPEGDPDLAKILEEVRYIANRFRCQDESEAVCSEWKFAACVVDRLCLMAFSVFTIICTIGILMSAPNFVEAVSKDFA

| EC50 | SMILES |
| --- | --- |
| ≤ 100 nM | COc1ccc(Cl)cc1NC[C@@H]1CC12CCN(S(N)(=O)=O)CC2 |
| ≤ 100 nM | NS(=O)(=O)N1CCC2(CC1)C(COc1ccnc(OC(F)F)c1)C2(F)F (stereo unspecified) |
| ≤ 100 nM | COc1ccc(Cl)cc1NC(=O)[C@@H]1C(F)(F)C12CCN(S(N)(=O)=O)CC2 |
| ≤ 100 nM | NS(=O)(=O)N1CCC2(CC1)C[C@H]2COc1cccc(NCC(F)(F)F)n1 |
| ≤ 100 nM | COc1ccc(Cl)cc1SC[C@@H]1CC12CCN(S(N)(=O)=O)CC2 |
| ≤ 100 nM | NS(=O)(=O)N1CCC2(CC1)C(COc1noc(-c3ccccc3)n1)C2(F)F (stereo unspecified) |
